Laboratory results from US10266544B2, “Aryl substituted aminomethyl spectinomycin analogs as antibacterial agents” (ST. JUDE CHILDREN'S RESEARCH HOSPITAL, INC., priority 2013, dated 2019).
Values after ≈ are worked out from the molar mass of the structure shown. Counter-ions that a name gives are not always drawn. Like-named read-outs stand apart in the source and are kept apart here.

What was measured:
Format in all cases: cell-based
[1] = system: Escherichia coli (ATCC 700926); assay: MIC determination, microbroth dilution
[2] = system: Bacillus subtilis (ATCC 23857); assay: MIC determination, microbroth dilution; details: ATCC23857; Bacillus subtilis (ATCC 23857); read-out: MIC B.s.
[3] = system: Enterococcus faecalis (ATCC 33186); assay: MIC determination, microbroth dilution
[4] = system: Streptococcus pyogenes (ATCC 700294); assay: MIC determination, microbroth dilution; details: ATCC700294; Streptococcus pyogenes (ATCC 700294); read-out: MIC S. py.
[5] = system: Pseudomonas aeruginosa (PA01); assay: MIC determination, microbroth dilution
[6] = system: Streptococcus pneumoniae (R6); assay: MIC determination, microbroth dilution; details: read-out: MIC S. pn.
[7] = system: Legionella pneumophila (ATCC 33153); assay: microbe, parasite or virus in culture; details: ATCC33153, 72 h, read-out: Zone of inhibition L.p.
[8] = system: Klebsiella pneumoniae (ATCC 33495); assay: MIC determination, microbroth dilution; details: ATCC33495
E. coli K12 ΔtolC = assay: microbe, parasite or virus in culture; details: Escherichia coli, read-out: MIC E.c. Δtolc
[9] = system: Stenotrophomonas maltophilia (ATCC 13637); assay: MIC determination, microbroth dilution; details: ATCC13637; Stenotrophomonas maltophilia (ATCC 13637); read-out: MIC S.m.
[10] = system: Proteus mirabilis (ATCC 25933); assay: MIC determination, microbroth dilution; details: ATCC25933
[11] = system: MRSA, Staphylococcus aureus (NRS70); assay: MIC determination, microbroth dilution; details: read-out: MIC MRSA
[12] = system: Proteus vulgaris (ATCC 33420); assay: MIC determination, microbroth dilution; details: ATCC33420
[13] = system: Staphylococcus aureus (ATCC 29213); assay: MIC determination, microbroth dilution; details: ATCC29213; Staphylococcus aureus (ATCC 29213); read-out: MIC S.a.
[14] = system: Burkholderia cepacia (ATCC 25416); assay: MIC determination, microbroth dilution; details: Burkholderia cepacia
[15] = system: Neisseria gonorrhoeae (ATCC 49226); assay: Agar MIC determination (Alamar Blue); details: ATCC49226, agar MIC, read-out: MIC N.g.
[16] = system: acinetobacter baumannii (ATCC 19606); assay: MIC determination, microbroth dilution; details: ATCC19606
[17] = system: M. tuberculosis clinical isolates; assay: microbe, parasite or virus in culture; details: Mycobacterium tuberculosis, H37RV, read-out: MIC H37Rv
[18] = system: Bacillus anthracis, Sterne 34F2; assay: microbe, parasite or virus in culture; details: STERNE34F2, read-out: MIC B.a.
[19] = system: Haemophilus influenza (ATCC 49247); assay: microbe, parasite or virus in culture; details: ATCC49247; Haemophilus influenza; 4 μg per disc; range of at least two experiments; read-out: Zone of inhibition H.i.
[20] = system: Neisseria meningitides (ATCC 13077); assay: Disc diffusion assay; details: ATCC13077, 4 μg per disc, read-out: Zone of inhibition N.m.
Bacillus anthracis = assay: microbe, parasite or virus in culture; details: read-out: MIC B.a.
Moraxella catarrhalis = assay: MIC determination (Table 6)
Listeria monocytogenes = assay: MIC determination (Table 6)
[21] = system: Neisseria gonorrhoeae (ATCC 49226); assay: Disc diffusion assay; details: ATCC49226, 4 μg per disc, read-out: Zone of inhibition N.g.
[22] = ATCC33186, Enterococcus faecalis (ATCC 33186), read-out: MIC E.f.
[23] = ATCC25416, read-out: MIC B.c., Burkholderia cepacia (ATCC 25416)
[24] = ATCC700926, Escherichia coli (ATCC 700926), read-out: MIC E.c.
[25] = ATCC25416, read-out: MIC B.c., Burkholderia cepacia, Table 6

| SMILES | MIC [2] [µg/mL] | MIC [3, 22] [µg/mL] | MIC [4] [µg/mL] | MIC [5] [µg/mL] | MIC ([6]; Streptococcus pneumoniae (R6)) [µg/mL] | MIC [8] [µg/mL] | MIC (E. coli K12 ΔtolC) [µg/mL] | MIC [9] [µg/mL] | MIC [10] [µg/mL] | MIC ([11]; Staphylococcus aureus (NRS70)) [µg/mL] | MIC [12] [µg/mL] | MIC [13] [µg/mL] | MIC [14, 23] [µg/mL] | MIC [15] [µg/mL] | MIC [16] [µg/mL] | MIC [17] [µg/mL] | MIC [18] [µg/mL] | MIC [1, 24] [µg/mL] | zone of inhibition at 4 µg/disc [19] [mm] | zone of inhibition at 4 µg/disc [20] [mm] | also measured |
| --- | --- | --- | --- | --- | --- | --- | --- | --- | --- | --- | --- | --- | --- | --- | --- | --- | --- | --- | --- | --- | --- |
| CN[C@@H]1[C@H](O)[C@H](NC)[C@H]2O[C@]3(O)[C@H](O[C@@H]2[C@H]1O)O[C@H](C)C[C@]3(O)CNCc1ccc(OC(F)(F)F)cc1 (stereo in doubt) [compound 26, 3′-(S)-3′-[(4-trifluoromethoxyl)benzylaminomethyl)]dihydrospectinomycin Trihydrochloride] | 100 to 200 | > 200 | > 200 | > 200 | > 200 | 100 | 6.3 | 50 | > 200 | > 200 | > 200 | ≥ 200 | > 200 | 50 to 100 | 50 to 100 | 100 | ≥ 200 |  |  |  | MIC ([1]; Escherichia coli, ATCC700926, read-out: MIC E.c.): 50 µg/mL; zone of inhibition at 4 µg/disc [7]: 8 mm |
| CN[C@@H]1[C@H](O)[C@H](NC)[C@H]2O[C@]3(O)[C@H](O[C@@H]2[C@H]1O)O[C@H](C)C[C@@]3(O)CNCc1ccc(C(F)(F)F)cc1 [compound 5, 3′-(R)-3′-[(4-trifluoromethyl)benzylaminomethyl)]dihydrospectinomycin Trihydrochloride] | 6.3 | 12.5 to 25 | 1.6 | 200 | 1.6 | 100 | 6.3 to 12.5 | 25 | > 200 | 25 | > 200 | 50 | 100 | 100 | ≥ 200 | 25 | 25 to 50 | 50 | 17 to 18 | 21 | MIC (Bacillus anthracis): 25 to 50 µg/mL; zone of inhibition at 4 µg/disc [7]: 27 to 28 mm; MIC (Moraxella catarrhalis): 3.1 to 6.3 µg/mL; MIC (Listeria monocytogenes): 12.5 µg/mL; zone of inhibition at 4 µg/disc [21]: 18 mm; MIC [14, 25]: 100 µg/mL |
| CN[C@@H]1[C@H](O)[C@H](NC)[C@H]2O[C@]3(O)[C@H](O[C@@H]2[C@H]1O)O[C@H](C)C[C@@]3(O)CNCc1cccnc1 [compound 7, 3′-(R)-3′-(3-pyridinylmethylaminomethyl)dihydrospectinomycin Tetrahydrobromide] | 100 | 200 | 25 | > 200 |  | > 200 | 12.5 to 25 | 100 | > 200 | > 200 | > 200 | ≥ 200 | ≥ 200 | 200 | ≥ 200 | 50 to 100 | 100 | 50 | 7 | 9 | MIC ([6]; Streptococcus pneumoniae): 12.5 to 25 µg/mL; MIC (Bacillus anthracis): 100 µg/mL; zone of inhibition at 4 µg/disc [7]: 42 mm; MIC (Moraxella catarrhalis): 6.3 µg/mL; MIC (Listeria monocytogenes): 25 µg/mL; zone of inhibition at 4 µg/disc [21]: 7 mm; MIC [14, 25]: ≥ 200 µg/mL |
| CN[C@@H]1[C@H](O)[C@H](NC)[C@H]2O[C@]3(O)[C@H](O[C@@H]2[C@H]1O)O[C@H](C)C[C@@]3(O)CNCc1ccc(Cl)cc1 [compound 18, 3′-(R)-3′-(4-Chlorobenzylaminomethyl)dihydrospectinomycin Trihydrobromide] | 3.1 |  | 0.8 to 1.6 | 200 | 1.6 to 3.1 | 200 | 3.1 to 6.3 | 25 | 200 |  | 100 to 200 | 25 to 50 | 100 to 200 | 25 | > 200 | 12.5 | 25 | 12.5 to 25 | 15 to 16 | 16 to 18 | MIC ([3]; Enterococcus faecalis, ATCC33186, read-out: MIC E.f.): 6.3 to 12.5 µg/mL; MIC (Bacillus anthracis): 25 µg/mL; zone of inhibition at 4 µg/disc [7]: 21 mm; MIC ([11]; Staphylococcus aureus): 12.5 to 25 µg/mL; MIC (Moraxella catarrhalis): 0.8 µg/mL; MIC (Listeria monocytogenes): 6.3 µg/mL; MIC [14, 25]: 100 to 200 µg/mL |
| CN[C@@H]1[C@H](O)[C@H](NC)[C@H]2O[C@]3(O)[C@H](O[C@@H]2[C@H]1O)O[C@H](C)C[C@@]3(O)CNCc1cnc[nH]1 [compound 20] | 25 (≈ 56.4 µM) | 100 (≈ 225 µM) | 50 (≈ 113 µM) | 200 (≈ 451 µM) | 25 to 50 (≈ 56.4 to 113 µM) | 50 to 100 (≈ 113 to 225 µM) | 25 (≈ 56.4 µM) | 3.1 to 6.3 (≈ 6.99 to 14.2 µM) | 200 (≈ 451 µM) | ≥ 200 | 100 to 200 (≈ 225 to 451 µM) | 200 (≈ 451 µM) | 100 to 200 (≈ 225 to 451 µM) | 100 to 200 (≈ 225 to 451 µM) | > 200 | 6.3 (≈ 14.2 µM) | 50 to 100 (≈ 113 to 225 µM) | 50 (≈ 113 µM) |  |  | MIC (Bacillus anthracis): 50 to 100 µg/mL (≈ 113 to 225 µM); MIC [14, 25]: 100 to 200 µg/mL (≈ 225 to 451 µM) |
| CN[C@@H]1[C@H](O)[C@H](NC)[C@H]2O[C@]3(O)[C@H](O[C@@H]2[C@H]1O)O[C@H](C)C[C@@]3(O)CNCc1cccc(C)n1 [compound 22, 3′-(A)-3′-[(6-Methyl)-2-pyridinylmethylamino)dihydrospectinomycin Tetrahydrobromide] | 50 | 25 | 6.3 | > 200 | 6.3 to 12.5 | > 200 | 25 | 12.5 | > 200 | ≥ 200 | > 200 | 50 to 100 | > 200 | 100 | > 200 | 6.3 | 50 | 100 to 200 | 10 | 14 | MIC (Bacillus anthracis): 50 µg/mL; MIC (Moraxella catarrhalis): 3.1 µg/mL; MIC (Listeria monocytogenes): 12.5 µg/mL; zone of inhibition at 4 µg/disc [21]: 11 mm; MIC [14, 25]: > 200 µg/mL |
| CN[C@@H]1[C@H](O)[C@H](NC)[C@H]2O[C@]3(O)[C@H](O[C@@H]2[C@H]1O)O[C@H](C)C[C@]3(O)CNCc1ccc(F)cc1 [compound 28, 3′-(S)-3′-[(4-fluoro)benzylaminomethyl)]dihydrospectinomycin Trihydrochloride] |  | > 200 | 100 to 200 |  | ≥ 200 | > 200 | ≥ 200 |  |  | > 200 |  | > 200 | > 200 | 200 | > 200 | 200 | > 200 | > 200 | 0 | 0 | zone of inhibition at 4 µg/disc [7]: 0 mm |
| CN[C@@H]1[C@H](O)[C@H](NC)[C@H]2O[C@]3(O)[C@H](O[C@@H]2[C@H]1O)O[C@H](C)C[C@@]3(O)CNCc1nc2ccccc2s1 [compound 34, 3′-(A′)-3′-(benzo[d]thiazolylmethyl)aminomethyl dihydrospectinomycin Trihydrobromide] | 50 to 100 | 25 | 3.1 | > 200 | 6.3 | 100 to 200 |  | 100 | > 200 | 100 to 200 | > 200 | 50 to 100 | > 200 | 100 | > 200 | 12.5 | 50 |  | 7 | 12 | zone of inhibition at 4 µg/disc [21]: 8 mm |
